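Each compound was tested at five concentrations against cells in 96-well plates for 48 hours. At the TGI there is no net growth.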
Tests used:
Assay in all cases: NCI anticancer screen, dose series, 48 h
UACC-62 melanoma = tested on: UACC-62 melanoma
NCI-H23 lung = tested on: NCI-H23 lung
CAKI-1 renal = tested on: CAKI-1 renal
SK-MEL-2 melanoma = tested on: SK-MEL-2 melanoma
MDA-MB-231 breast = tested on: MDA-MB-231 breast
EKVX NSCLC = tested on: EKVX NSCLC
U251 CNS = tested on: U251 CNS
CCRF-CEM leukemia = tested on: CCRF-CEM leukemia
SNB-75 CNS = tested on: SNB-75 CNS
M14 melanoma = tested on: M14 melanoma
SN12C renal = tested on: SN12C renal
HCT-116 colon = tested on: HCT-116 colon
NCI/ADR-RES ovarian = tested on: NCI/ADR-RES ovarian
OVCAR-8 ovarian = tested on: OVCAR-8 ovarian
COLO 205 colon = tested on: COLO 205 colon
KM12 colon = tested on: KM12 colon
MDA-N = tested on: MDA-N
TK-10 renal = tested on: TK-10 renal
HCT-15 colon = tested on: HCT-15 colon
MOLT-4 leukemia = tested on: MOLT-4 leukemia
LOX IMVI melanoma = tested on: LOX IMVI melanoma
RXF 393 renal = tested on: RXF 393 renal
T-47D breast = tested on: T-47D breast
MDA-MB-435 = tested on: MDA-MB-435
A498 renal = tested on: A498 renal
SF-539 CNS = tested on: SF-539 CNS
IGROV1 ovarian = tested on: IGROV1 ovarian
PC-3 prostate = tested on: PC-3 prostate
OVCAR-5 ovarian = tested on: OVCAR-5 ovarian
HT29 colon = tested on: HT29 colon
DU-145 prostate = tested on: DU-145 prostate
SNB-19 CNS = tested on: SNB-19 CNS
HS 578T breast = tested on: HS 578T breast
SF-295 CNS = tested on: SF-295 CNS
A549 NSCLC = tested on: A549 NSCLC
NCI-H522 lung = tested on: NCI-H522 lung
SF-268 CNS = tested on: SF-268 CNS
UACC-257 melanoma = tested on: UACC-257 melanoma
786-0 renal = tested on: 786-0 renal
MCF7 breast = tested on: MCF7 breast
ACHN renal = tested on: ACHN renal
SW-620 colon = tested on: SW-620 colon
SK-MEL-28 melanoma = tested on: SK-MEL-28 melanoma
MALME-3M melanoma = tested on: MALME-3M melanoma
NCI-H226 lung = tested on: NCI-H226 lung
SK-MEL-5 melanoma = tested on: SK-MEL-5 melanoma
OVCAR-4 ovarian = tested on: OVCAR-4 ovarian
BT-549 breast = tested on: BT-549 breast
UO-31 renal = tested on: UO-31 renal
SK-OV-3 ovarian = tested on: SK-OV-3 ovarian
HOP-62 NSCLC = tested on: HOP-62 NSCLC
HL-60(TB) leukemia = tested on: HL-60(TB) leukemia
RPMI-8226 leukemia = tested on: RPMI-8226 leukemia
SR leukemia = tested on: SR leukemia
HCC-2998 colon = tested on: HCC-2998 colon
K-562 leukemia = tested on: K-562 leukemia

For `COCN1C(=O)[C@@H]2C[C@@H](OC/C=C/CBr)CN2C(=O)c2ccccc21`, the TGI (UACC-62 melanoma) was 71.5 µM, the TGI (NCI-H23 lung) was 81.5 µM and the TGI (CAKI-1 renal) was 38.7 µM. For the same molecule, the TGI (SK-MEL-2 melanoma) was > 100 µM, the TGI (MDA-MB-231 breast) was 55.1 µM and the TGI (EKVX NSCLC) was 50.4 µM. The TGI (U251 CNS) was 74.8 µM, the TGI (CCRF-CEM leukemia) was > 100 µM and the TGI (SNB-75 CNS) was 27.9 µM. For the same molecule, the TGI (M14 melanoma) was 42.9 µM, the TGI (SN12C renal) was 33.3 µM and the TGI (HCT-116 colon) was 42.7 µM. The TGI (NCI/ADR-RES ovarian) was > 100 µM, the TGI (OVCAR-8 ovarian) was 34 µM and the TGI (COLO 205 colon) was 42.8 µM. It also gave a TGI (KM12 colon) of 63.5 µM, a TGI (MDA-N) of 40.3 µM and a TGI (TK-10 renal) of 49.7 µM. For the same molecule, the TGI (HCT-15 colon) was 56.2 µM, the TGI (MOLT-4 leukemia) was > 100 µM and the TGI (LOX IMVI melanoma) was 13.1 µM. For the same molecule, the TGI (RXF 393 renal) was 51.3 µM, the TGI (T-47D breast) was 59 µM and the TGI (MDA-MB-435) was 50.9 µM. For the same molecule, the TGI (A498 renal) was 66.4 µM, the TGI (SF-539 CNS) was 40.8 µM and the TGI (IGROV1 ovarian) was 26.5 µM. The TGI (PC-3 prostate) was 51.8 µM, the TGI (OVCAR-5 ovarian) was 49.7 µM and the TGI (HT29 colon) was 82.1 µM. For the same molecule, the TGI (DU-145 prostate) was 43.9 µM, the TGI (SNB-19 CNS) was 67.2 µM and the TGI (HS 578T breast) was > 100 µM. The TGI (SF-295 CNS) was 46.5 µM, the TGI (A549 NSCLC) was 35.5 µM and the TGI (NCI-H522 lung) was 25.9 µM. The TGI (SF-268 CNS) was 83.4 µM, the TGI (UACC-257 melanoma) was 37.6 µM and the TGI (786-0 renal) was 53.9 µM. The TGI (MCF7 breast) was 33.7 µM, the TGI (ACHN renal) was 54.8 µM and the TGI (SW-620 colon) was 45.6 µM. The TGI (SK-MEL-28 melanoma) was 45.4 µM, the TGI (MALME-3M melanoma) was 35.3 µM and the TGI (NCI-H226 lung) was 29.9 µM. The TGI (SK-MEL-5 melanoma) was 34.8 µM, the TGI (OVCAR-4 ovarian) was 35.7 µM and the TGI (BT-549 breast) was > 100 µM. It also gave a TGI (UO-31 renal) of 40.5 µM, a TGI (SK-OV-3 ovarian) of 88.5 µM and a TGI (HOP-62 NSCLC) of 54.6 µM. For the same molecule, the TGI (HL-60(TB) leukemia) was > 100 µM.

For `N#Cc1ccc(NC(=NCC(=O)O)Nc2ccc3ccccc3c2)cc1`, the TGI (UACC-62 melanoma) was > 10 µM, the TGI (NCI-H23 lung) was > 10 µM and the TGI (CAKI-1 renal) was > 10 µM. For the same molecule, the TGI (MDA-MB-231 breast) was > 10 µM, the TGI (EKVX NSCLC) was > 10 µM and the TGI (CCRF-CEM leukemia) was > 10 µM. The TGI (SNB-75 CNS) was > 10 µM, the TGI (RPMI-8226 leukemia) was > 10 µM and the TGI (M14 melanoma) was > 10 µM. The TGI (SN12C renal) was > 10 µM, the TGI (OVCAR-8 ovarian) was > 10 µM and the TGI (COLO 205 colon) was > 10 µM. The TGI (KM12 colon) was > 10 µM, the TGI (MDA-N) was > 10 µM and the TGI (SR leukemia) was > 10 µM. For the same molecule, the TGI (TK-10 renal) was > 10 µM, the TGI (HCT-15 colon) was > 10 µM and the TGI (MOLT-4 leukemia) was > 10 µM. For the same molecule, the TGI (RXF 393 renal) was > 10 µM, the TGI (T-47D breast) was > 10 µM and the TGI (IGROV1 ovarian) was > 10 µM. The TGI (PC-3 prostate) was > 10 µM, the TGI (HT29 colon) was > 10 µM and the TGI (DU-145 prostate) was > 10 µM. The TGI (HCC-2998 colon) was > 10 µM, the TGI (SF-295 CNS) was > 10 µM and the TGI (K-562 leukemia) was > 10 µM. For the same molecule, the TGI (A549 NSCLC) was > 10 µM, the TGI (SF-268 CNS) was > 10 µM and the TGI (UACC-257 melanoma) was > 10 µM. For the same molecule, the TGI (786-0 renal) was > 10 µM, the TGI (MCF7 breast) was > 10 µM and the TGI (SW-620 colon) was > 10 µM. The TGI (SK-MEL-28 melanoma) was > 10 µM, the TGI (MALME-3M melanoma) was > 10 µM and the TGI (SK-MEL-5 melanoma) was > 10 µM. The TGI (SK-OV-3 ovarian) was > 10 µM, the TGI (HOP-62 NSCLC) was > 10 µM and the TGI (HL-60(TB) leukemia) was > 10 µM.

From PubChem BioAssay (NCI)
